Legend:
Assay type in all cases: functional
[1] = test system: Enterococcus; experiment: Antibacterial activity against Enterococcus 60 assessed as bacterial growth inhibition in presence of 50 ug/ml calcium ions by CLSI protocol based broth microdilution method
[2] = test system: Staphylococcus aureus; experiment: Antibacterial activity against methicillin-resistant Staphylococcus aureus 88 assessed as bacterial growth inhibition in presence of 50 ug/ml calcium ions by CLSI protocol based broth microdilution method
[3] = test system: Staphylococcus aureus; experiment: Antibacterial activity against methicillin-resistant Staphylococcus aureus 86 assessed as bacterial growth inhibition in presence of 50 ug/ml calcium ions by CLSI protocol based broth microdilution method
[4] = test system: Enterococcus; experiment: Antibacterial activity against Enterococcus 6 assessed as bacterial growth inhibition in presence of 50 ug/ml calcium ions by CLSI protocol based broth microdilution method
[5] = test system: Staphylococcus aureus; experiment: Antibacterial activity against methicillin-resistant Staphylococcus aureus 14 assessed as bacterial growth inhibition in presence of 50 ug/ml calcium ions by CLSI protocol based broth microdilution method
[6] = test system: Enterococcus faecalis; experiment: Antibacterial activity against Streptococcus faecalis assessed as bacterial growth inhibition in presence of 50 ug/ml calcium ions by CLSI protocol based broth microdilution method
[7] = test system: Enterococcus faecalis; experiment: Antibacterial activity against Enterococcus faecalis ATCC 29212 assessed as bacterial growth inhibition in presence of 50 ug/ml calcium ions by CLSI protocol based broth microdilution method
[8] = test system: Staphylococcus aureus; experiment: Antibacterial activity against Staphylococcus aureus ATCC 29213 assessed as bacterial growth inhibition in presence of 50 ug/ml calcium ions by CLSI protocol based broth microdilution method
[9] = test system: Staphylococcus aureus; experiment: Antibacterial activity against methicillin-resistant Staphylococcus aureus 11 assessed as bacterial growth inhibition in presence of 50 ug/ml calcium ions by CLSI protocol based broth microdilution method

SMILES: CCCCCCCCCC(=O)N[C@@H](Cc1c[nH]c2ccccc12)C(=O)N[C@@H](CC(N)=O)C(=O)N[C@@H](CC(=O)O)C(=O)N[C@@H]1C(=O)NCC(=O)N[C@@H](CCCN)C(=O)N[C@@H](CC(=O)O)C(=O)N[C@H](C)C(=O)N[C@@H]([C@H](C)CC(=O)O)C(=O)NCC(=O)N[C@H](CO)C(=O)N[C@@H](CC(=O)O)C(=O)N[C@@H](CC(=O)c2ccccc2N)C(=O)O[C@@H]1C
- MIC [1]: ≥ 32 mg/L
- MIC [2]: ≥ 32 mg/L
- MIC [3]: ≥ 32 mg/L
- MIC [4]: ≥ 32 mg/L
- MIC [5]: ≥ 32 mg/L
- MIC [6]: ≥ 32 mg/L
- MIC [7]: ≥ 32 mg/L
- MIC [8]: ≥ 32 mg/L
- MIC [9]: ≥ 32 mg/L

SMILES: CCCCCCCCCC(=O)N[C@@H](Cc1c[nH]c2ccccc12)C(=O)N[C@@H](CC(N)=O)C(=O)N[C@@H](CC(=O)O)C(=O)N[C@@H]1C(=O)NCC(=O)N[C@@H](C(C)C)C(=O)N[C@@H](CC(=O)O)C(=O)N[C@H](C)C(=O)N[C@@H](CC(=O)O)C(=O)NCC(=O)N[C@H](CO)C(=O)N[C@@H]([C@@H](C)CC(=O)O)C(=O)N[C@@H](CC(=O)c2ccccc2N)C(=O)O[C@@H]1C
- MIC [1]: ≥ 32 mg/L
- MIC [2]: 8 mg/L
- MIC [3]: 8 mg/L
- MIC [4]: ≥ 32 mg/L
- MIC [5]: ≥ 32 mg/L
- MIC [6]: ≥ 32 mg/L
- MIC [7]: ≥ 32 mg/L
- MIC [8]: 8 mg/L
- MIC [9]: ≥ 32 mg/L

SMILES: CCCCCCCCCC(=O)N[C@@H](Cc1c[nH]c2ccccc12)C(=O)N[C@@H](CC(N)=O)C(=O)N[C@@H](CC(=O)O)C(=O)N[C@@H]1C(=O)NCC(=O)N[C@@H](C)C(=O)N[C@@H](CC(=O)O)C(=O)N[C@H](C)C(=O)N[C@@H](CC(=O)O)C(=O)NCC(=O)N[C@H](CO)C(=O)N[C@@H]([C@@H](C)CC(=O)O)C(=O)N[C@@H](CC(=O)c2ccccc2N)C(=O)O[C@@H]1C
- MIC [1]: 1 mg/L
- MIC [2]: 1 mg/L
- MIC [3]: 0.5 mg/L
- MIC [4]: 2 mg/L
- MIC [5]: 0.25 mg/L
- MIC [6]: 4 mg/L
- MIC [7]: 4 mg/L
- MIC [8]: 0.5 mg/L
- MIC [9]: 0.5 mg/L

SMILES: CCCCCCCCCC(=O)N[C@@H](Cc1c[nH]c2ccccc12)C(=O)N[C@@H](CC(N)=O)C(=O)N[C@@H](CC(=O)O)C(=O)N[C@@H]1C(=O)NCC(=O)N[C@@H](CSSC[C@@H]2NC(=O)CNC(=O)[C@@H](NC(=O)[C@H](CC(=O)O)NC(=O)[C@H](CC(N)=O)NC(=O)[C@H](Cc3c[nH]c4ccccc34)NC(=O)CCCCCCCCC)[C@@H](C)OC(=O)[C@H](CC(=O)c3ccccc3N)NC(=O)[C@H]([C@@H](C)CC(=O)O)NC(=O)[C@@H](CO)NC(=O)CNC(=O)[C@H](CC(=O)O)NC(=O)[C@@H](C)NC(=O)[C@H](CC(=O)O)NC2=O)C(=O)N[C@@H](CC(=O)O)C(=O)N[C@H](C)C(=O)N[C@@H](CC(=O)O)C(=O)NCC(=O)N[C@H](CO)C(=O)N[C@@H]([C@@H](C)CC(=O)O)C(=O)N[C@@H](CC(=O)c2ccccc2N)C(=O)O[C@@H]1C
- MIC [1]: 16 mg/L
- MIC [2]: 16 mg/L
- MIC [3]: 8 mg/L
- MIC [4]: 16 mg/L
- MIC [5]: 4 mg/L
- MIC [6]: 4 mg/L
- MIC [7]: 16 mg/L
- MIC [8]: 16 mg/L
- MIC [9]: 8 mg/L

SMILES: CCCCCCCCCC(=O)N[C@@H](Cc1c[nH]c2ccccc12)C(=O)N[C@@H](CC(N)=O)C(=O)N[C@@H](CC(=O)O)C(=O)N[C@@H]1C(=O)NCC(=O)N[C@@H](CCCN)C(=O)N[C@@H](CC(=O)O)C(=O)N[C@H](C)C(=O)N[C@@H](CC(=O)O)C(=O)NCC(=O)N[C@H](CO)C(=O)N[C@@H]([C@@H](C)CC(=O)O)C(=O)N[C@@H](C)C(=O)O[C@@H]1C
- MIC [1]: ≥ 32 mg/L
- MIC [2]: ≥ 32 mg/L
- MIC [3]: ≥ 32 mg/L
- MIC [4]: ≥ 32 mg/L
- MIC [5]: ≥ 32 mg/L
- MIC [6]: ≥ 32 mg/L
- MIC [7]: ≥ 32 mg/L
- MIC [8]: ≥ 32 mg/L
- MIC [9]: ≥ 32 mg/L

SMILES: CCCCCCCCCC(=O)N[C@@H](Cc1ccc(OC)cc1)C(=O)N[C@@H](CC(N)=O)C(=O)N[C@@H](CC(=O)O)C(=O)N[C@@H]1C(=O)NCC(=O)N[C@@H](CCCN)C(=O)N[C@@H](CC(=O)O)C(=O)N[C@H](C)C(=O)N[C@@H](CC(=O)O)C(=O)NCC(=O)N[C@H](CO)C(=O)N[C@@H]([C@@H](C)CC(=O)O)C(=O)N[C@@H](CC(=O)c2ccccc2N)C(=O)O[C@@H]1C
- MIC [1]: ≥ 32 mg/L
- MIC [2]: 2 mg/L
- MIC [3]: 2 mg/L
- MIC [4]: ≥ 32 mg/L
- MIC [5]: 4 mg/L
- MIC [6]: 8 mg/L
- MIC [7]: ≥ 32 mg/L
- MIC [8]: 2 mg/L
- MIC [9]: 16 mg/L

SMILES: CCCCCCCCCC(=O)N[C@@H](Cc1c[nH]c2ccccc12)C(=O)N[C@@H](CC(N)=O)C(=O)N[C@@H](CC(=O)O)C(=O)N[C@@H]1C(=O)NCC(=O)N2CCC[C@H]2C(=O)N[C@@H](CC(=O)O)C(=O)N[C@H](C)C(=O)N[C@@H](CC(=O)O)C(=O)NCC(=O)N[C@H](CO)C(=O)N[C@@H]([C@@H](C)CC(=O)O)C(=O)N[C@@H](CC(=O)c2ccccc2N)C(=O)O[C@@H]1C
- MIC [1]: ≥ 32 mg/L
- MIC [2]: ≥ 32 mg/L
- MIC [3]: ≥ 32 mg/L
- MIC [4]: ≥ 32 mg/L
- MIC [5]: ≥ 32 mg/L
- MIC [6]: ≥ 32 mg/L
- MIC [7]: ≥ 32 mg/L
- MIC [8]: ≥ 32 mg/L
- MIC [9]: ≥ 32 mg/L

SMILES: CCCCCCCCCC(=O)N[C@@H](Cc1c[nH]c2ccccc12)C(=O)N[C@@H](CC(N)=O)C(=O)N[C@@H](CC(=O)O)C(=O)N[C@@H]1C(=O)NCC(=O)N[C@@H](CCSC)C(=O)N[C@@H](CC(=O)O)C(=O)N[C@H](C)C(=O)N[C@@H](CC(=O)O)C(=O)NCC(=O)N[C@H](CO)C(=O)N[C@@H]([C@@H](C)CC(=O)O)C(=O)N[C@@H](CC(=O)c2ccccc2N)C(=O)O[C@@H]1C
- MIC [1]: 32 mg/L
- MIC [2]: ≥ 32 mg/L
- MIC [3]: ≥ 32 mg/L
- MIC [4]: ≥ 32 mg/L
- MIC [5]: ≥ 32 mg/L
- MIC [6]: ≥ 32 mg/L
- MIC [7]: ≥ 32 mg/L
- MIC [8]: ≥ 32 mg/L
- MIC [9]: ≥ 32 mg/L

SMILES: CCCCCCCCCC(=O)N[C@@H](Cc1c[nH]c2ccccc12)C(=O)N[C@@H](CC(N)=O)C(=O)N[C@@H](CC(=O)O)C(=O)N[C@@H]1C(=O)NCC(=O)N[C@@H](Cc2c[nH]cn2)C(=O)N[C@@H](CC(=O)O)C(=O)N[C@H](C)C(=O)N[C@@H](CC(=O)O)C(=O)NCC(=O)N[C@H](CO)C(=O)N[C@@H]([C@@H](C)CC(=O)O)C(=O)N[C@@H](CC(=O)c2ccccc2N)C(=O)O[C@@H]1C
- MIC [1]: ≥ 32 mg/L
- MIC [2]: 8 mg/L
- MIC [3]: 8 mg/L
- MIC [4]: ≥ 32 mg/L
- MIC [5]: 16 mg/L
- MIC [6]: ≥ 32 mg/L
- MIC [7]: ≥ 32 mg/L
- MIC [8]: 8 mg/L
- MIC [9]: 16 mg/L

SMILES: CCCCCCCCCC(=O)N[C@@H](Cc1c[nH]c2ccccc12)C(=O)N[C@@H](CC(N)=O)C(=O)N[C@@H](CC(=O)O)C(=O)N[C@@H]1C(=O)NCC(=O)N[C@@H](Cc2ccccc2)C(=O)N[C@@H](CC(=O)O)C(=O)N[C@H](C)C(=O)N[C@@H](CC(=O)O)C(=O)NCC(=O)N[C@H](CO)C(=O)N[C@@H]([C@@H](C)CC(=O)O)C(=O)N[C@@H](CC(=O)c2ccccc2N)C(=O)O[C@@H]1C
- MIC [1]: ≥ 32 mg/L
- MIC [2]: 16 mg/L
- MIC [3]: 16 mg/L
- MIC [4]: ≥ 32 mg/L
- MIC [5]: ≥ 32 mg/L
- MIC [6]: ≥ 32 mg/L
- MIC [7]: ≥ 32 mg/L
- MIC [8]: 16 mg/L
- MIC [9]: ≥ 32 mg/L

SMILES: CCCCCCCCCC(=O)N[C@@H](Cc1c[nH]c2ccccc12)C(=O)N[C@@H](CC(N)=O)C(=O)N[C@@H](CC(=O)O)C(=O)N[C@@H]1C(=O)NCC(=O)N[C@@H](CO)C(=O)N[C@@H](CC(=O)O)C(=O)N[C@H](C)C(=O)N[C@@H](CC(=O)O)C(=O)NCC(=O)N[C@H](CO)C(=O)N[C@@H]([C@@H](C)CC(=O)O)C(=O)N[C@@H](CC(=O)c2ccccc2N)C(=O)O[C@@H]1C
- MIC [1]: ≥ 32 mg/L
- MIC [2]: 1 mg/L
- MIC [3]: 2 mg/L
- MIC [4]: 32 mg/L
- MIC [5]: 4 mg/L
- MIC [6]: 4 mg/L
- MIC [7]: ≥ 32 mg/L
- MIC [8]: 2 mg/L
- MIC [9]: 4 mg/L

SMILES: CCCCCCCCCC(=O)N[C@@H](Cc1c[nH]c2ccccc12)C(=O)N[C@@H](CC(N)=O)C(=O)N[C@@H](CC(=O)O)C(=O)N[C@@H]1C(=O)NCC(=O)N[C@@H](CCC(N)=O)C(=O)N[C@@H](CC(=O)O)C(=O)N[C@H](C)C(=O)N[C@@H](CC(=O)O)C(=O)NCC(=O)N[C@H](CO)C(=O)N[C@@H]([C@@H](C)CC(=O)O)C(=O)N[C@@H](CC(=O)c2ccccc2N)C(=O)O[C@@H]1C
- MIC [1]: ≥ 32 mg/L
- MIC [2]: 4 mg/L
- MIC [3]: 4 mg/L
- MIC [4]: ≥ 32 mg/L
- MIC [5]: ≥ 32 mg/L
- MIC [6]: ≥ 32 mg/L
- MIC [7]: ≥ 32 mg/L
- MIC [8]: 4 mg/L
- MIC [9]: ≥ 32 mg/L
